Test results from US20180000778A1, “SMALL MOLECULE ANTAGONISTS OF DUSP5 AND METHODS OF USE” (THE MEDICAL COLLEGE OF WISCONSIN, INC., priority 2015, published 2018).
Where “and” joins values, the source holds several entries; their conditions need not be identical. Identical values can stand only once. Counter-ions that a name gives are not always drawn.

What was measured:
phosphatase [1] = conditions: cited from earlier work
full-length DUSP5 = target: T1, full-length DUSP5 (Homo sapiens, UniProt Q16690); experiment: ERK dephosphorylation assay, full-length DUSP5 with pERK2 substrate, western blot; assay type: biochemical
T1 construct: an assay was development using ERK2 and full-length DUSP5
T1 sequence (Q16690 1-384): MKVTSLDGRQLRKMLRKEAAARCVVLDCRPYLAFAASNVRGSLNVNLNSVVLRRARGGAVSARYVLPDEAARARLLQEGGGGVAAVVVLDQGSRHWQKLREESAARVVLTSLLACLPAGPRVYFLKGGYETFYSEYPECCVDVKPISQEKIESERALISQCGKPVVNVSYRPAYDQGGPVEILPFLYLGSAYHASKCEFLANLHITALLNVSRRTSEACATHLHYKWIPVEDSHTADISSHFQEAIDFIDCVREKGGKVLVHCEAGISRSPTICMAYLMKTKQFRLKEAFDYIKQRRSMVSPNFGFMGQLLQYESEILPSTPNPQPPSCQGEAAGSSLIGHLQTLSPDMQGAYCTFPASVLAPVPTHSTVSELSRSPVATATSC
Description: ERK Dephosphorylation Assay.
For this assay, 10 ng of GST-tagged recombinant phosphorylated ERK2 (R&D Systems, 1230-KS) was incubated with and without the indicated DUSP5 proteins (0.5 nM final concentration) for 15 min at room temperature, with or without the indicated drugs. The reactions were halted with 2× Laemmli sample buffer and subjected to SDS-PAGE. The proteins were transferred to polyvinylidene difluoride (PVDF) and immunoblotted using antibodies to pERK (Cell Signaling Tech., #9106) and Total ERK (Cell Signaling Tech., #9102). Bound antibodies were visualized using horseradish peroxidase-linked anti-mouse IgG (Cell Signaling Tech, #7076S) and anti-rabbit IgG (Cell Signaling Tech, #7074S), respectively, and ECL reagents (Pierce, 34708) according to the manufacturer's protocol. IC50s were calculated using GraphPad Prism 6 software.
And, the native substrate for DUSP5 is the pERK2 protein, which is much larger and capable of a more complicated range of inter-molecular interactions that the pNPP substrate (which is intended only to mimic the phospho-tyrosine of pERK). […] To this end, an assay was development using ERK2 and full-length DUSP5, monitoring pERK levels in a western blot, as a function of pERK2 substrate concentration. […] This surprising increase in potency for CSD3-2320 (but not NTS) with full length DUSP5 underscores the importance of performing secondary assays with biologically relevant forms of enzyme and substrate.

DUSP5 PD(WT) [2] = target: T2, DUSP5 PD(WT) (Homo sapiens, UniProt Q16690); experiment: pNPP phosphatase activity assay with DUSP5 PD(WT); assay type: biochemical
T2 construct: hexa-histidine (N); made in house; host or cells: E. coli BL21(DE3)
T2 sequence (Q16690 178-319 limits assumed): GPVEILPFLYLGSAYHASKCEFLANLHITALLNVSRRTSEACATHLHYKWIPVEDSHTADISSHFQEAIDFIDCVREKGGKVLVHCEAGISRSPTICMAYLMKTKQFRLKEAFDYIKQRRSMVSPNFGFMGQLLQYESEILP
Source text: p-Nitrophenolphosphatase (pNPP) Activity Assay.
To measure enzymatic activity of the DUSP5 PD and the inhibitory capacity of selected molecules, an in vitro phosphatase assay was developed based on previous studies (27). In this assay, DUSP5 PD dephosphorylates the substrate p-nitrophenol phosphate (pNPP, Sigma Aldrich), yielding p-nitrophenolate, which absorbs at 405 nm with an extinction coefficient of 18,000 M-1 cm-1.
Thus, an increase in absorbance at 405 nm corresponds to the turnover of pNPP top-nitrophenolate. The assay was initially optimized in 1 mL quartz cuvettes, then was subsequently optimized for and validated in a 96-well plate format. All IC50 values were obtained using the 96-well plate assay format (see below). The assay buffer contained 100 mM Tris, 100 mM sodium chloride, 5 mM magnesium chloride, and 1 mM dithiothreitol (DTT) at pH 7.5. The pNPP substrate was prepared as a 50 mM stock by dissolving the solid substrate in assay buffer. The DUSP5 PD and pNPP were assayed initially in a cuvette (1 mL total volume) and initial velocities were fitted to the Michaelis-Menten equation (1)
where v is the initial velocity, Vmax is the maximum velocity, Km is the Michaelis constant, and [S] is the concentration of pNPP. Data were fitted using a nonlinear least squares fit to eq. 1, with GraphPad Prism 6 software.
For the 96-well plate validation assay, sodium orthovanadate (Sigma Aldrich) was utilized as a positive control for inhibition (Swarup et al., Biochem Biophys Res Commun. 1982; 107:1104-9.) at a final concentration of 10 μM, to completely block activity. All plate assays were performed in standard 96-well clear bottom plates (Thermo Scientific Nunc) with a total assay volume of 200 μL, using a SpectraMax M5 Microplate Reader (Molecular Devices). The plate validation assay was performed with replicate columns of positive control wells, negative control wells and blank wells. Blank columns contained only buffer and pNPP. Negative control (uninhibited) contained buffer, pNPP, and DUSP5 PD; and, positive control contained the same components, but also contained 10 μM sodium orthovanadate. The plate was then shaken and allowed to equilibrate in the spectrophotometer at 25° C. for 30 min. After incubation, 4 μL of a […] was dispensed into appropriate wells utilizing a single-channel pipette. This produced a final enzyme concentration of 1 μM. Before a read was taken, the plate was shaken for five seconds. The initial rate for the DUSP5 PD reaction was linear for approximately 90 min; and, the plate was kept in the spectrophotometer at 25° C. for an additional 80 min after the kinetic read. The endpoint reading was subsequently taken at 90 min after initiation of reaction. Slopes from the kinetic read, as well as single-point absorbance values at the 90-minute endpoint read, were then averaged. For blank wells and positive control wells, both slope values (continuous assay) and single point absorbance values (fixed time assay) were approximately zero, as expected. Standard deviations were calculated and a Z′ value (Zhang et al., J Biomol Screening. 1999; 4:67-73) subsequently determined using the following equation: […]
IC50 values were obtained using the assay described above, in 96 well plates. The maximum inhibitor concentration screened in any plate was […] and the minimum was 1.5 μM. The IC50 plate was designed so that the first column of wells served as blanks, with wells containing only buffer and substrate. The second column of wells functioned as the plate negative control, with each well containing buffer, substrate and enzyme. The remaining wells in the plate contained buffer, substrate, enzyme, and varying amounts of inhibitor, with inhibitor concentration increasing from left to right across the plate. Data points were collected in triplicate, and inhibitor concentrations were chosen to provide data equally spread on a logarithmic scale. […]

PTPN1 = target: T3, PTPN1 (Homo sapiens, UniProt P18031); experiment: Phosphatase inhibition profiles (Table 4), initial rates; assay type: biochemical; conditions: read-out: IC50 PTPN1 (mean ± SE)
T3 sequence (P18031 1-435): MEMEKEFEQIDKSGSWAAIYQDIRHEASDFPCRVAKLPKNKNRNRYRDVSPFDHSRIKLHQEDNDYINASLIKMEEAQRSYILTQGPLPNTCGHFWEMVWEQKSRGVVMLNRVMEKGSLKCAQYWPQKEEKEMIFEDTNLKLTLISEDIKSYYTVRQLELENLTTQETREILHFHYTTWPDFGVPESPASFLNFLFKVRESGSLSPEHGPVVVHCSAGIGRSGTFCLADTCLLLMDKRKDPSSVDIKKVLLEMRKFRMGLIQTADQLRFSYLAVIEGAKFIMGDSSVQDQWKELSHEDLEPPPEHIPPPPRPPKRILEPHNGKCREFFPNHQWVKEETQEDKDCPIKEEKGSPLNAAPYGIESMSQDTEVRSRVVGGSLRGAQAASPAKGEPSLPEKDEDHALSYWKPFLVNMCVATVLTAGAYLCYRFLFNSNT

DUSP5 (PD)-WT = target: T4, DUSP5 (PD)-WT (Homo sapiens, UniProt Q16690); experiment: as above; assay type: biochemical; conditions: read-out: IC50 DUSP5 (PD)-WT (mean ± SE)
T4 construct: hexa-histidine (N); made in house; host or cells: E. coli BL21(DE3)
T4 sequence (Q16690 178-319): T2 sequence (Q16690 178-319 limits assumed)

phosphatase [3] = experiment: Phosphatase inhibitory activity (Example 3, range of activity); assay type: biochemical
[4] = Aggregation of compounds (nephelometry; detergent treatment); assay type: physicochemical
Description: Nephelometry is a technique for measuring the relative aggregation of particles in solution, based on the light-scattering properties of molecular aggregates (30). To explore the ability of the chemicals studied herein to form aggregates, which can lead to artifactual inhibition effects, nephelometry was performed. Compounds were tested for aggregation in 96-well plates using a buffer containing 100 mM Tris base, 100 mM sodium chloride, and 5 mM magnesium chloride at pH 7.5. Each compound analyzed in these experiments contained concentrations of compound ranging from 10-100 μM, recorded in quadruplet. Each plate was analyzed at two separate gain values of 52 and 72. Data were collected using a BMG NEPHELOstar Plus, equipped with a 635 nm laser.
To investigate whether Suramin aggregates in solution, a property often investigated with small molecules, we performed detergent treatment assays. […] NTS and Suramin were compared using DUSP5 PD IC50 assays performed with and without detergent. […] We concluded that Suramin forms aggregates in vitro which can lead to non-specific protein inhibition effects. Beyond any adverse implications for repurposing Suramin in this project, the aggregation phenomenon raises more global concerns regarding the current clinical use of Suramin, and may in part explain some of the known toxicity associated with Suramin (32).

PTP1B = PTP1B (Homo sapiens, UniProt P18031); experiment: NCI compound library screen, phosphatase inhibitory activity; assay type: biochemical
SHP-1 = SHP-1 (Homo sapiens, UniProt P29350); experiment: as above; assay type: biochemical
[5] = system: pERK levels in HUVEC cells; experiment: pERK levels in HUVEC cells, western blot; assay type: cell-based, Human; conditions: HUVECs incubated 2 hours, pERK relative to total ERK; Na3VO4 at 200 μM
Description: Cell Culture and Western Blots.
Human Umbilical Vein Endothelial Cells (HUVECs) were maintained in EBM2 media (Lonza, CC-3156) supplemented with a combined serum and growth factor kit (Lonza, CC-4176). Cells were incubated with the indicated concentrations of drug for 2 h and lysed with RIPA buffer (Sigma, R0278) on ice. Cell lysates were cleared by centrifugation at 16,300×g for 30 min. The resulting supernatants were isolated and protein concentration determined by Lowry assay (DC protein assay, BioRad). 2× laemmli sample buffer was added to equal amounts of protein and separated by SDS-PAGE. The protein gels were transferred to polyvinylidene difluoride (PVDF) and immunoblotted using antibodies to phosphorylated ERK (Cell Signaling, #9106) and total ERK (Cell Signaling, #9102). Bound antibodies were visualized using horseradish peroxidase-linked anti-rabbit IgG, anti-mouse IgG (Cell Signaling Tech., #7074 and #7076) and ECL reagents (Thermo Scientific, 34080) according to the manufacturer's protocol.

DUSP5 PD(WT) [6] = target: T2, DUSP5 PD(WT); experiment: pNPP phosphatase activity assay with DUSP5 PD(WT); assay type: biochemical; conditions: 1 mL cuvettes, pNPP substrate

Chain of SHP-1 (P29350 whole entry): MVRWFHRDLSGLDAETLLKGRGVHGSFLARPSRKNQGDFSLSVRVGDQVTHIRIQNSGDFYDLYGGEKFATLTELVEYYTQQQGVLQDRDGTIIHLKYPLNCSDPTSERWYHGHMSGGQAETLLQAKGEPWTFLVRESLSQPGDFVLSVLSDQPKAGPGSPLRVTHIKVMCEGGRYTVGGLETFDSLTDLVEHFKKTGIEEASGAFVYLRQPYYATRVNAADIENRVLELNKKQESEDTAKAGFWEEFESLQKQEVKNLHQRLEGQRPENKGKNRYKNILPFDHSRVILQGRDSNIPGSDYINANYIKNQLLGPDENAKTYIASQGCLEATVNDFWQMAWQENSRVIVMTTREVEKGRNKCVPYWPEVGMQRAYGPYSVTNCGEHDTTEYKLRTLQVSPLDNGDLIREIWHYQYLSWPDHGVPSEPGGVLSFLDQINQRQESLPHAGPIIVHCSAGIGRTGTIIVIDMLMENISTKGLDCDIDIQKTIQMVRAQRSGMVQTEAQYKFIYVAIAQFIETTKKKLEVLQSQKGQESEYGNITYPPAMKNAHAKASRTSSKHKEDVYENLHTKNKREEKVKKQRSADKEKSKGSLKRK

O=S(=O)(O)c1ccc2cc(N=Nc3cc(S(=O)(=O)O)c4cccnc4c3O)ccc2c1 [NSC-87877]
range of phosphatase inhibition, published compound (phosphatase [1]): ~1.7 mM

O=S(=O)(O)c1ccc2c(S(=O)(=O)O)cc(S(=O)(=O)O)cc2c1 [NTS, naphthalene 1,3,6-trisulfonate]
IC50 (full-length DUSP5; full-length DUSP5, pERK/ERK2 substrate): 221 ± 87 µM

O=S(=O)(O)c1cc(S(=O)(=O)O)c2[nH]c3c(S(=O)(=O)O)cc(S(=O)(=O)O)cc3c2c1 [RR506, Carbazole-1,3,6,8-tetrasulfonic acid, Tetrasodium Salt]
IC50's, range in words (DUSP5 PD(WT) [2]; enzyme inhibition (FIG. 3)): mM range

O=S(=O)(O)c1cc(Oc2cc(S(=O)(=O)O)cc(S(=O)(=O)O)c2O)c(O)c(S(=O)(=O)O)c1 [RR533]
IC50 (PTPN1): 106 ± 0.1 µM | IC50 (DUSP5 (PD)-WT): 26.4 ± 7.2 µM

Nc1cccc2c(O)cc(S(=O)(=O)O)cc12 [RR535]
range in which active (phosphatase [3]; monomer): ~1e-06 mM | IC50 (PTPN1): > 1000 µM | aggregation [4]: do not aggregate | phosphatase inhibitory activity (PTP1B): phosphatase inhibitory activity | phosphatase inhibitory activity (SHP-1): phosphatase inhibitory activity

O=S(=O)(O)c1cc(O)c2cccc(N=Nc3cccc4c(O)cc(S(=O)(=O)O)cc34)c2c1 [RR601]
range in which active (phosphatase [3]; dimer): ~30 mM | IC50 (PTPN1): 2.5 ± 0.1 µM | aggregation [4]: do not aggregate | IC50 (DUSP5 (PD)-WT): 30 ± 3 µM

O=S(=O)([O-])c1cc2c(O)c(c1)Cc1cc(S(=O)(=O)[O-])cc(c1O)Cc1cc(S(=O)(=O)[O-])cc(c1O)Cc1cc(S(=O)(=O)[O-])cc(c1O)C2.[Na+].[Na+].[Na+].[Na+] [RR701]
activity in DUSP5:pERK assay, in words (full-length DUSP5; in vitro, western blot): robust activity

Cc1ccc(C(=O)Nc2ccc(S(=O)(=O)O)c3cc(S(=O)(=O)O)cc(S(=O)(=O)O)c23)cc1NC(=O)c1cccc(NC(=O)Nc2cccc(C(=O)Nc3cc(C(=O)Nc4ccc(S(=O)(=O)O)c5cc(S(=O)(=O)O)cc(S(=O)(=O)O)c45)ccc3C)c2)c1 [Suramin]
inhibition at 1 µM (DUSP5 PD(WT) [2]; 1 μM Suramin, 5 mM pNPP, increasing Triton X-100, read-out: plateau level inhibition with increasing detergent): 30% | effect of detergent on inhibition (DUSP5 PD(WT) [2]; IC50 measurement in presence and absence of 0.5% Triton): loss of some inhibitory capability in the presence of detergent | mechanism of inhibition (DUSP5 PD(WT) [2]; inhibition profile versus pNPP): competitive inhibition | Ki (DUSP5 PD(WT) [2]; read-out: Ki, competitive inhibition, varied pNPP and inhibitor): 24.6 µM and 25 µM | aggregation [4]: Aggregates | effect on pERK levels [5]: significant decrease in pERK levels

[Na+].[Na+].[Na+].[O]=[V]([O-])([O-])[O-] [sodium orthovanadate]
IC50 (DUSP5 PD(WT) [6]): 0.008 ± 0.008 µM | effect on pERK levels [5]: expected increase in pERK levels
